How the values were obtained:
[1] = test system: maternal serum samples (antibodies); assay: ELISA peptide-binding of maternal sera, expanded peptide collection (Example 5); parameters: species or system human
Summary of the method: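 Maternal sera diluted 1:50 or 1:500 in 1% BSA/PBS/0.05% Tween 20 were tested by ELISA on 10 μg/mL HIV IIIB gp120/gp41 peptides (~18 residues, ≥85% pure). Binding scored positive at experimental/control OD450nm ratio ≥2; HIV-seronegative human sera served as controls.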

HIV-IIIB viral isolate = assay: Neutralization assay (HIV-IIIB, Hut-78 cells, p24 antigen ELISA); type: cell-based, HIV-1 IIIB
Experimental: (§1) The H9 cell line (a cutaneous T lymphoma line) infected by HIV-IIIB [ATCC CRL 8543] was used in the neutralization assay. The H9 cell line infected by HIV-MN was used in the anti-syncytial assays. SupT1 and Hut78 cells were used as the target cell lines for the anti-syncytial and neutralization assays. All cell lines were obtained from the National Institutes of Health AIDS Repository (Bethesda, Md.).
In a neutralization assay, 20 μl of maternal sera samples was placed in 96 round bottom well plates at final dilutions of 1:10, 1:90 and 1:810 in RPMI. The HIV-IIIB viral isolate was diluted in RPMI to a TCID50 of 100 units/ml. Twenty μl of the virus solution was placed in each well and the plate was incubated for one hour at 4° C. Hut-78 cells were incubated with 2 μg/ml of polybrene for one hour at 37° C. in a CO2 incubator. The HUT-78 cells were washed and resuspended in fresh RPMI to a final concentration of 4×10^6 cells/ml. Ten μl of the cell suspension was added to each well and the plate was incubated for one hour in a 37° C., CO2 incubator.
Fifteen μl of the serum/cell/virus solution was aliquoted to a new plate containing 200 μl of fresh RPMI and incubated for 6 days. After 6 days, 100 μl was used to analyze for p24 antigen. The p24 capture ELISA assay kit (Coulter Corporation, Hialeah, Fla.) was used to perform the measurements.
Further, sera samples at the same dilutions as described above were tested for residual p24 core protein or antibody to insure the results were due only to viral infection.

[2] = test system: HIV-1 infected cells (MN isolate); assay: Anti-syncytial assay (inhibition of HIV-1 MN syncytium formation, SupT1 target cells); type: cell-based
Source text: as §1
To analyze the effect of the maternal serum samples on HIV-1 fusion, SupT1 cells were used as target cells in an anti-syncytial assay. Dilutions of the different maternal serum samples were made in 96 well plates in RPMI 1640 media containing 10% fetal calf serum at final dilutions of 1:4, 1:8, 1:16, 1:32, 1:64, 1:128, 1:256 or 1:512. HIV-1 infected cells (MN isolate) were then plated in the wells at a density of approximately 10^4 cells per well. SupT1 target cells were then added at 5×10^5 /well and the number of syncytia are determined after 3 days of incubation. Inhibition of syncytium formation by a serum sample was considered significant if the dilution which yielded a 50% reduction in the number of syncytia when compared to control was greater than 1:32. The average number of syncytia in the control (normal human serum) wells at the above dilutions were: 45.5, 48.5, 44, 48, 48.5, 41.5, 42 and 45.5 respectively.

Sequence	Number of non-transmission sera that reacted with the peptide ([1]; of 13 non-transmission sera)	Neutralizing activity of non-transmission sera which reacted with the peptide (HIV-IIIB viral isolate; Example 5)	Number of samples which bound the peptide and possessed neutralization activity (HIV-IIIB viral isolate; sera which bound the peptide)	Antisyncytial activity of non-transmission sera which reacted with the peptide ([2]; Example 5)	Number of samples which bound the peptide and possessed anti-syncytial activity ([2]; sera which bound the peptide)	Binding / reactivity of maternal sera to peptide (in words) ([1]; Example 5)	Percent of samples which bound the peptide and possessed neutralization activity (HIV-IIIB viral isolate; sera which bound the peptide) [%]	Percent of samples which bound the peptide and possessed anti-syncytial activity ([2]; sera which bound the peptide) [%]
CFRPGGGDMRDNWREL [Peptide 466]	3	All 3 of these sera exhibited neutralizing activity	all of them	possessed, to varying degrees, antisyncytial activity	all of them	–	–	–
TLPCASDAKAYDTEV [Peptide 93]	–	–	3	–	6	Differences in binding between the transmission and non-transmission groups are noted	50	100

— US5556744A, “Methods and compositions for diagnosing and treating certain HIV infected patients” (The Trustees of the University of Pennsylvania, priority 1994, dated 1996)
